Experimental findings from PMC10788915, “Fragment Merging, Growing, and Linking Identify New Trypanothione Reductase Inhibitors for Leishmaniasis” (Journal of Medicinal Chemistry, 2024) are described below.

One may read the IC50 as the concentration that inhibits the measured activity by half. Lower therefore signals greater potency in that assay. For orientation: EC50 means the concentration that produces a half-maximal response.

Like-named read-outs stand apart in the source and are kept apart here.

The target in test [1] is T1, Leishmania infantum TR (LiTR) (Leishmania infantum, UniProt A4HSF7).
T1 construct: The TbTR and LiTR genes were subcloned in a pET28b vector; 6-His (cleaved yes); made in house; host or cells: E. coli BL21(DE3), pET28b
Description: LiTR enzymatic inhibition assay (NADPH oxidation at 340 nm). The conditions noted are these: for IC50: 50 nM LiTR, 150 μM trypanothione, 100 μM NADPH, 25 °C; for gain in LiTR IC50 with respect to 5: compared to compound 5 (IC50 54.6 μM); for remaining activity at 10 µM: compound at 10 μM, mean ± SD, n = 3, read-out: LiTR residual activity %. Format: biochemical. The protocol: Enzymatic inhibition assays were performed in 50 mM HEPES pH 7.4, 40 mM NaCl at 25 °C using a JASCO V650 spectrophotometer equipped with a JASCO EHC 716 Peltier element to ensure controlled temperature. The first experiment was carried out using 50 nM LiTR, 10 or 100 μM compound to be tested, 150 μM trypanothione (trypanothione disulfide purchased from Bachem), and 100 μM NADPH (tetrasodium salt, purchased from Calbiochem). The best inhibitor candidates were then tested at concentrations ranging from 1 nM to 250 μM to determine the IC50. Assays were initiated upon addition of 100 μM NADPH to 50 nM LiTR or hGR (human glutathione reductase purchased from Sigma-Aldrich) in the presence of different concentration of compounds and 150 μM trypanothione. For both experiments, the oxidation of NADPH was followed as a decrease in absorbance at 340 nm. For each concentration of compound, the initial velocity of the NADPH oxidation was used to determine the percentage of LiTR activity with respect to that in the absence of any compound. The IC50 was determined upon fitting the residual activity of TR as a dose–response logistic equation defined as ymin + (ymax – ymin)/(1 + (x/IC50)^slope). […] The Ki was determined graphically upon linear fitting of data points for each trypanothione concentration. Data analysis was performed with QtiPlot 0.9.8.9 svn 2288, and graphs were made with Matplotlib.
Figure S3. Inhibition assay of LiTR (red) and hGR (grey) with compounds 5-6, 9-10 and 14.
Enzymatic assays were carried out at 25°C on a JASCO V650 spectrophotometer equipped with a JASCO EHC716 Peltier unit. Compound concentrations used during the experiments range from 1 […]
higher than 30 µM and 20 µM, respectively. Briefly, 50 nM LiTR or hGR (Sigma Aldrich) were mixed in 50 mM HEPES pH 7.4, 40 mM NaCl with each compound and 150 µM trypanothione or glutathione. After 3-minute incubation at 25°C, the measurement was initiated upon addition of 100 µM NADPH. The oxidation of NADPH was followed as a decrease in absorbance at 340 nm. Each initial velocity of LiTR enzymatic reaction with the compounds was expressed as a percentage of residual activity with respect to that in the absence of compound. Each data point is the mean of two measurements. The IC50 was determined upon fitting the data as a dose response logistic equation defined by the Kaleidagraph software as ymin+(ymax-ymin)/(1+(x/IC50)^slope).
(1 picture or pasted object on this page, not shown here)

Test [2] concerns L. infantum axenic amastigotes. Nature of the test: In vitro inhibition of axenic amastigote growth (MTT). The conditions noted are these: 72 h, read-out: axenic amastigote EC50 ± SE (95% CI). The class given is cell-based, Leishmania infantum. The protocol: Axenic amastigote growth inhibition was evaluated using L. infantum strain (MHOM/TN/80/IPT1, WHO international reference strain). Axenic amastigote cultures were obtained as described previously with modifications.[45] Promastigotes were grown in Schneider’s Drosophila medium (SIGMA) containing 10% heat-inactivated fetal calf serum (FCS)(GIBCO-BRL) and 2% gentamicin (50 mg/L)(Sigma) in 25 cm^2 flasks at 22 °C. After 4–5 days, the parasites were adjusted to 1 × 10^6 parasites/mL in axenic medium MAA/20 consisting of modified medium 199 (Gibco BRL) with Hanks’ salts supplemented with 0.5% tryptic soy broth (Sigma), 0.01 mM bathocuproine disulfonic acid, 3 mM L-cysteine, 15 mM D-glucose, 5 mM L-glutamine, 4 mM NaHCO3, 0.023 mM bovine hemin, and 25 mM HEPES to a final pH of 6.5 and supplemented with 20% pretested FCS, and axenic amastigotes were obtained by shifting the incubation conditions: 198 μL of suspension was seeded in triplicate in 96-well flat bottom microplates and incubated at 37 °C, 5% CO2 for 48 h in order to allow the axenization. The amastigote cells were visualized under the light microscope to confirm transformation. Then, 2 μL of the selected compounds with varying concentrations were added: 100, 50, 25, 12.5, 6.25, 3.12, 1.56, 0.8, 0.4, 0.2, 0.1, 0.05 μM. […] Each experiment was conducted in triplicate for each drug concentration, and three independent experiments were performed. To estimate the 50% inhibitory concentration (IC50), the (3-[4.5-dimethylthiazol-2-yl]-2.5-diphenyltetrazolium bromide) (MTT) micromethod was used throughout the experiments with modification. After 72 h of incubation, 30 μL of MTT was added to each well, and the plates were further incubated for 3 h. The absorbance at 550 nm was measured with a 96-well scanner. Antileishmanial activity was expressed as the percentage of inhibition in the number of live parasites compared to that in the control (nontreated parasites). % inhibition was calculated as follows: % growth inhibition = [(absorb cell with drug × 100)/absorb cell control] – 100. Results were analyzed by GraphPad Prism 5.0, dose–response curves were obtained and IC50 deduced (GraphPad Software Inc., San Diego, USA).

T1 sequence (A4HSF7 1-491): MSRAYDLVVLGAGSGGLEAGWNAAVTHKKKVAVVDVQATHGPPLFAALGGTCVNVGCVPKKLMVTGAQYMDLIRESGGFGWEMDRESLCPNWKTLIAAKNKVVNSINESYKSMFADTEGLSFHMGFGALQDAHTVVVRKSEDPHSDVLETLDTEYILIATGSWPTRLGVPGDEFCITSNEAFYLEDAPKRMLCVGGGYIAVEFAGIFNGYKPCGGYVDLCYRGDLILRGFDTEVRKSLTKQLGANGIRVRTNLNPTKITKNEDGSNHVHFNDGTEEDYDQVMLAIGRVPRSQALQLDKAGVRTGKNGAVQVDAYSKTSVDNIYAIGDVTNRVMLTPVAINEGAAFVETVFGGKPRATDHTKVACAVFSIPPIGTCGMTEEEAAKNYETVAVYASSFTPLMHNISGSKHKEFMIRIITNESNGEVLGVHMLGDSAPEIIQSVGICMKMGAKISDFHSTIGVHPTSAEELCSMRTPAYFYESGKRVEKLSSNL

Regarding `O=C(NCCc1ccc(F)cc1)c1ccc(CNC(=O)N2CC[N+](CCCc3ccccc3)(Cc3ccc(Cl)c(Cl)c3)CC2)o1.[I-]` [Compound 14, 1-(3,4-Dichlorobenzyl)-4-(((5-((4-fluorophenethyl)carbamoyl)furan-2-yl)methyl)carbamoyl)-1-(3-phenylpropyl)piperazin-1-ium Iodide], in test [1], the IC50 stood at 2.35 ± 0.21 µM, the “gain in LiTR IC50 with respect to 5” value amounted to 23 fold and the remaining activity at 10 µM amounted to 10.3 ± 2.8%. Besides, in test [2] (Leishmania infantum), the EC50 is 8.98 ± 0.4 µM.

Regarding `C[N+]1(CCCc2ccccc2)CCN(C(=O)N(Cc2ccc(C(=O)NCCc3ccc(F)cc3)o2)c2ccc(F)cc2)CC1.[I-]` [Compound 9, 4-(((5-((4-Fluorophenethyl)carbamoyl)furan-2-yl)methyl)(4-fluorophenyl)carbamoyl)-1-methyl-1-(3-phenylpropyl)piperazin-1-ium Iodide], in test [1], half-maximal inhibition (IC50) was put at 20.5 ± 2 µM, the “gain in LiTR IC50 with respect to 5” value was “about 3 fold” and the remaining activity at 10 µM stood at 48.5 ± 7.9%. Moreover, the EC50 in test [2] stood at 10.4 ± 1.1 µM. The EC50 in test [2] (Leishmania infantum) stood at 10.4 µM.

On to `O=C(NCCc1ccc(F)cc1)c1ccc(CN(C(=O)N2CC[N+](CCCc3ccccc3)(Cc3ccc(Cl)c(Cl)c3)CC2)c2ccc(F)cc2)o1.[I-]` [Compound 10, 1-(3,4-Dichlorobenzyl)-4-(((5-((4-fluorophenethyl)carbamoyl)furan-2-yl)methyl)(4-fluorophenyl)carbamoyl)-1-(3-phenylpropyl)piperazin-1-ium Iodide], for which, in test [1], the half-inhibitory concentration (IC50) was 1.31 ± 0.07 µM, the “gain in LiTR IC50 with respect to 5” value is 42 fold and the remaining activity at 10 µM turned out to be 22 ± 11.6%. The EC50 in test [2] (Leishmania infantum) turned out to be 11 ± 1.9 µM.
